Reference: ChEMBL document CHEMBL1275563, “Genetic characterization of Vga ABC proteins conferring reduced susceptibility to pleuromutilins in Staphylococcus aureus” (2008)
Converted amounts (≈) assume the structure as drawn. Numbered stars: 1 amine (or outer) side, 2 acyl side, 3 side chain; on linkers, the order of the positions; unused ones are H or OH. Bridge positions count the residues as written; N and C are the ends. Square brackets hold non-standard residues; d marks the D form. Peptide text beside a SMILES is read from it. * marks the point of attachment. X1 = O=C1C[C@@H](C(=O)[*:2])N([*:1])C[C@H]1CS[C@@H]1CN2CCC1CC2; NMePhe(4-NMe2) = CN[C@@H](Cc1ccc(N(C)C)cc1)C(=O)O; Picolinoyl(3-OH) = O=C(c1ncccc1O)*; Phg = N[C@H](C(=O)O)c1ccccc1; dAbu = CC[C@@H](N)C(=O)O

Experiments:
[1] = test system: Staphylococcus aureus; experiment: Antimicrobial activity against Staphylococcus aureus RN4220 harboring vgaAv positive plasmid CU1
[2] = test system: Staphylococcus aureus; experiment: Antimicrobial activity against Staphylococcus aureus RN4220 harboring plasmid CU1
[3] = test system: Staphylococcus aureus; experiment: Antimicrobial activity against Staphylococcus aureus RN4220 harboring plasmid VGA
[4] = test system: Staphylococcus aureus; experiment: Antimicrobial activity against Staphylococcus aureus RN4220; type: functional
[5] = test system: Staphylococcus aureus; experiment: Antimicrobial activity against Staphylococcus aureus RN1024-tms; type: functional
[6] = test system: Staphylococcus aureus; experiment: microbe, parasite or virus in culture; settings: ATCC 29213
Description: Antimicrobial activity against Staphylococcus aureus ATCC 29213

[7] = test system: Staphylococcus aureus; experiment: Antimicrobial activity against Staphylococcus aureus RN1024; type: functional
[8] = test system: Staphylococcus aureus; experiment: Antimicrobial activity against Staphylococcus aureus IV20217033 harboring vgaA positive plasmid VGA; type: functional
[9] = test system: Staphylococcus aureus; experiment: Antimicrobial activity against Staphylococcus aureus IV20222009 harboring vgaAv positive Tn5406 transposon; type: functional
[10] = test system: Staphylococcus aureus; experiment: Antimicrobial activity against Staphylococcus aureus IV20217008 harboring vgaAv positive Tn5406 transposon; type: functional
[11] = test system: Staphylococcus aureus; experiment: Antimicrobial activity against Staphylococcus aureus IV20204009 harboring vgaAv positive Tn5406 transposon; type: functional
[12] = test system: Staphylococcus aureus; experiment: Antimicrobial activity against Staphylococcus aureus IV20205004 harboring vgaAv positive Tn5406 transposon; type: functional
[13] = test system: Staphylococcus aureus; experiment: Antimicrobial activity against Staphylococcus aureus IHMA127277 harboring vgaAv positive Tn5406 transposon; type: functional

O=C(N[C@H](CO)[C@H](O)c1ccc([N+](=O)[O-])cc1)C(Cl)Cl [CHLORAMPHENICOL] showed an MIC [1] greater than 64 µg/mL, an MIC [2] greater than 64 µg/mL and an MIC [3] of 8 µg/mL (≈ 24.8 µM). It also gave an MIC [4] of 8 µg/mL (≈ 24.8 µM), an MIC [5] of 8 µg/mL (≈ 24.8 µM) and an MIC [6] of 16 µg/mL (≈ 49.5 µM). It also gave an MIC [7] of 8 µg/mL (≈ 24.8 µM).
With CCC[C@@H]1C[C@@H](C(=O)N[C@@H]([C@H]2O[C@H](SC)[C@H](O)[C@@H](O)[C@H]2O)[C@H](C)Cl)N(C)C1 [CLINDAMYCIN] the MIC [1] was 2 µg/mL (≈ 4.71 µM), the MIC [2] was 0.06 µg/mL (≈ 0.141 µM) and the MIC [3] was 4 µg/mL (≈ 9.41 µM). The MIC [4] was 0.06 µg/mL (≈ 0.141 µM), the MIC [5] was 0.06 µg/mL (≈ 0.141 µM) and the MIC [6] was 0.125 µg/mL (≈ 0.294 µM). It also gave an MIC [7] of 0.25 µg/mL (≈ 0.588 µM).
CCN(CC)CCS(=O)(=O)[C@@H]1CCN2C(=O)c3coc(n3)CC(=O)C[C@H](O)/C=C(C)/C=C/CNC(=O)/C=C/[C@@H](C)[C@@H](C(C)C)OC(=O)[C@@H]12 [DALFOPRISTIN] was tested, and the MIC [1] was 64 µg/mL (≈ 92.6 µM), the MIC [2] was 4 µg/mL (≈ 5.79 µM) and the MIC [3] was 32 µg/mL (≈ 46.3 µM). It also gave an MIC [4] of 4 µg/mL (≈ 5.79 µM), an MIC [5] of 8 µg/mL (≈ 11.6 µM) and an MIC [6] of 8 µg/mL (≈ 11.6 µM). It also gave an MIC [7] of 64 µg/mL (≈ 92.6 µM).
Molecule CC[C@H]1OC(=O)[C@H](C)[C@@H](O[C@H]2C[C@@](C)(OC)[C@@H](O)[C@H](C)O2)[C@H](C)[C@@H](O[C@@H]2O[C@H](C)C[C@H](N(C)C)[C@H]2O)[C@](C)(O)C[C@@H](C)C(=O)[C@H](C)[C@@H](O)[C@]1(C)O [ERYTHROMYCIN] has an MIC [1] of 0.125 µg/mL (≈ 0.17 µM), an MIC [2] of 0.25 µg/mL (≈ 0.341 µM) and an MIC [3] of 0.25 µg/mL (≈ 0.341 µM). For the same molecule, the MIC [4] was 0.25 µg/mL (≈ 0.341 µM), the MIC [5] was 0.25 µg/mL (≈ 0.341 µM) and the MIC [6] was 0.5 µg/mL (≈ 0.681 µM). The MIC [7] was 0.25 µg/mL (≈ 0.341 µM).
With C[C@H]1COc2c(N3CCN(C)CC3)c(F)cc3c(=O)c(C(=O)O)cn1c23.C[C@H]1COc2c(N3CCN(C)CC3)c(F)cc3c(=O)c(C(=O)O)cn1c23.O [LEVOFLOXACIN] the MIC [1] was 0.125 µg/mL, the MIC [2] was 0.125 µg/mL and the MIC [3] was 0.125 µg/mL. It also gave an MIC [4] of 0.125 µg/mL, an MIC [5] of 32 µg/mL and an MIC [6] of 0.125 µg/mL. It also gave an MIC [7] of 16 µg/mL.
In the case of CCC[C@@H]1C[C@@H](C(=O)N[C@@H]([C@H]2O[C@H](SC)[C@H](O)[C@@H](O)[C@H]2O)[C@@H](C)O)N(C)C1 [LINCOMYCIN], the MIC [1] is reported as 32 µg/mL (≈ 78.7 µM), the MIC [2] is reported as 0.5 µg/mL (≈ 1.23 µM) and the MIC [3] is reported as 32 µg/mL (≈ 78.7 µM). For the same molecule, the MIC [4] was 0.5 µg/mL (≈ 1.23 µM), the MIC [5] was 1 µg/mL (≈ 2.46 µM) and the MIC [6] was 2 µg/mL (≈ 4.92 µM). For the same molecule, the MIC [7] was 8 µg/mL (≈ 19.7 µM).
CC(=O)NC[C@H]1CN(c2ccc(N3CCOCC3)c(F)c2)C(=O)O1 [LINEZOLID] was tested, and the MIC [1] was 1 µg/mL (≈ 2.96 µM).
C/C(=C\C(=O)OCCCCCCCCC(=O)O)C[C@@H]1OC[C@H](C[C@@H]2O[C@H]2[C@@H](C)[C@H](C)O)[C@@H](O)[C@H]1O [MUPIROCIN] gave an MIC [4] of no more than 0.06 µg/mL, an MIC [5] of 0.25 µg/mL (≈ 0.499 µM) and an MIC [6] of 0.25 µg/mL (≈ 0.499 µM). It also gave an MIC [7] of 0.25 µg/mL (≈ 0.499 µM).
In the case of CC[C@H]1NC(=O)[C@@H](NC(=O)c2ncccc2O)[C@@H](C)OC(=O)[C@H](c2ccccc2)NC(=O)[C@@H]2CC(=O)[C@H](CS[C@@H]3CN4CCC3CC4)CN2C(=O)[C@H](Cc2ccc(N(C)C)cc2)N(C)C(=O)[C@@H]2CCCN2C1=O [QUINUPRISTIN] ({Picolinoyl(3-OH)}-T[dAbu]P[NMePhe(4-NMe2)][X1][Phg]; ester 1-C), the MIC [1] is reported as 1 µg/mL (≈ 0.978 µM), the MIC [2] is reported as 4 µg/mL (≈ 3.91 µM) and the MIC [3] is reported as 4 µg/mL (≈ 3.91 µM). The MIC [4] was 4 µg/mL (≈ 3.91 µM), the MIC [5] was 4 µg/mL (≈ 3.91 µM) and the MIC [6] was 4 µg/mL (≈ 3.91 µM). It also gave an MIC [7] of 4 µg/mL (≈ 3.91 µM).
C=C[C@]1(C)C[C@@H](OC(=O)CS[C@@H]2C[C@H]3CC[C@@H](C2)N3C)[C@]2(C)[C@H](C)CC[C@]3(CCC(=O)[C@H]32)[C@@H](C)[C@@H]1O [RETAPAMULIN] showed an MIC [1] of 32 µg/mL (≈ 61.8 µM), an MIC [8] of 64 µg/mL (≈ 124 µM) and an MIC [9] of 4 µg/mL (≈ 7.73 µM). For the same molecule, the MIC [10] was 4 µg/mL (≈ 7.73 µM), the MIC [3] was 32 µg/mL (≈ 61.8 µM) and the MIC [4] was no more than 0.06 µg/mL. The MIC [11] was 2 µg/mL (≈ 3.86 µM), the MIC [12] was 2 µg/mL (≈ 3.86 µM) and the MIC [5] was no more than 0.06 µg/mL. It also gave an MIC [6] of no more than 0.06 µg/mL, an MIC [7] of 2 µg/mL (≈ 3.86 µM) and an MIC [13] of 2 µg/mL (≈ 3.86 µM).
CO[C@H]1/C=C/O[C@@]2(C)Oc3c(C)c(O)c4c(O)c(c(/C=N/N5CCN(C)CC5)c(O)c4c3C2=O)NC(=O)/C(C)=C\C=C\[C@H](C)[C@H](O)[C@@H](C)[C@@H](O)[C@@H](C)[C@H](OC(C)=O)[C@@H]1C [RIFAMPIN] gave an MIC [4] of no more than 0.06 µg/mL, an MIC [5] greater than 64 µg/mL and an MIC [6] of less than 0.06 µg/mL. For the same molecule, the MIC [7] was greater than 64 µg/mL.
Molecule CN(C)[C@@H]1C(O)=C(C(N)=O)C(=O)[C@@]2(O)C(O)=C3C(=O)c4c(O)cccc4[C@@](C)(O)[C@H]3C[C@@H]12 [TETRACYCLINE] has an MIC [1] of 0.125 µg/mL (≈ 0.281 µM), an MIC [2] of 0.25 µg/mL (≈ 0.563 µM) and an MIC [4] of 0.25 µg/mL (≈ 0.563 µM). For the same molecule, the MIC [5] was 64 µg/mL (≈ 144 µM), the MIC [6] was 0.5 µg/mL (≈ 1.13 µM) and the MIC [7] was 64 µg/mL (≈ 144 µM).
C=C[C@]1(C)C[C@@H](OC(=O)CSCCN(CC)CC)[C@]2(C)[C@H](C)CC[C@]3(CCC(=O)[C@H]32)[C@@H](C)[C@@H]1O [TIAMULIN] gave an MIC [1] greater than 64 µg/mL, an MIC [8] greater than 64 µg/mL and an MIC [9] of 16 µg/mL (≈ 32.4 µM). For the same molecule, the MIC [10] was 32 µg/mL (≈ 64.8 µM), the MIC [2] was 0.25 µg/mL (≈ 0.506 µM) and the MIC [3] was greater than 64 µg/mL. For the same molecule, the MIC [4] was 0.5 µg/mL (≈ 1.01 µM), the MIC [11] was 32 µg/mL (≈ 64.8 µM) and the MIC [12] was 16 µg/mL (≈ 32.4 µM). For the same molecule, the MIC [5] was 0.5 µg/mL (≈ 1.01 µM), the MIC [6] was 1 µg/mL (≈ 2.03 µM) and the MIC [7] was 16 µg/mL (≈ 32.4 µM).
With COc1cc(Cc2cnc(N)nc2N)cc(OC)c1OC [TRIMETHOPRIM] the MIC [1] was 2 µg/mL (≈ 6.89 µM), the MIC [2] was 2 µg/mL (≈ 6.89 µM) and the MIC [3] was 2 µg/mL (≈ 6.89 µM). It also gave an MIC [4] of 2 µg/mL (≈ 6.89 µM), an MIC [5] of 2 µg/mL (≈ 6.89 µM) and an MIC [6] of 2 µg/mL (≈ 6.89 µM). For the same molecule, the MIC [7] was 2 µg/mL (≈ 6.89 µM).
With GENTAMICIN the MIC [4] was 1 µg/mL, the MIC [5] was greater than 64 µg/mL and the MIC [7] was greater than 64 µg/mL.
